Reference: publication PMC6093650, “Antidepressive and anxiolytic effects of ostruthin, a TREK-1 channel activator” (PLoS ONE, 2018)

How the values were obtained:
KCNQ-1 = KCNQ-1 (Homo sapiens, UniProt P51787); assay: whole-cell patch-clamp of KCNQ-1 currents in 293T cells; format: cell-based; details: 100 μM (data not shown)
Source text: For recordings of K^+ channel currents, we prepared stable cell lines for TREK-1, TWIK-related acid-sensitive K^+ channel (TASK-1), strongly inwardly rectifying K^+ channel (Kir2.1), and human ether-a-go-go-related gene (HERG-1) channels and transiently expressed other channels in 293T cells using a calcium-phosphate transfection method. For the establishment of the stable lines, we used lentiviral vectors, and the preparation methods for the lentiviral vectors were described in our previous report. TR-1 cells, which stably expressed TREK-1 channel and were grown on a small cover glass (3 × 18 mm), were placed in a recording chamber with an internal volume of 200 μl. Whole-cell currents were recorded in Tyrode solution using an Axopatch 200B amplifier (Axon Instruments, Foster City, CA) at 25°C. Tyrode solution contained (in mM): NaCl 140, KCl 5.4, NaH2PO4 0.33, CaCl2 2, MgCl2 1, HEPES 5, and glucose 5.5 (pH 7.4 adjusted with NaOH). […] Perfusion (100 μl/min) was continued to maintain the water level throughout recordings. pH and osmotic pressure of solutions were measured with a pH meter (Horiba, Kyoto, Japan) and a freezing point osmometer (Knauer, Berlin, Germany), respectively. […]

[1] = system: depression-like behavior of mice; assay: tail suspension test; format: in vivo
Source text: Male ICR mice (n = 317 in total) aged 5 weeks and weighing 32 ± 2 g were purchased from Shimizu Laboratory Supplies (Kyoto, Japan). For the social defeat stress test, we used 28 C57BL/6J mice (5 weeks old, Shimizu Laboratory Supplies) and 30 ICR mice (7–8 weeks old, Charles River Labs Japan, Yokohama, Kanagawa, Japan). Mice were maintained for at least 1 week prior to experiments. Animals were kept in groups in plastic cages. They had free access to food and water, and were kept in a 12-h light/dark cycle (08:00–20:00). Experiments were carried out between 10:00 and 18:00 in a quiet and air-conditioned experimental room, in which mice were habituated for at least 30 min before each experiment. Animal experiments were performed in accordance with the guidelines of the Physiological Society of Japan and were approved by the Committees on Animal Experiments at Kansai Medical University and the Kurashiki University of Science and the Arts. Ostruthin was initially dissolved in DMSO at higher concentration (100 mM) and then diluted in phosphate-buffered saline (PBS). The diluted solution was mixed vigorously for more than 10 min before the experiments, and an equal volume of DMSO was added to PBS as a control. PBS and ostruthin were administered intraperitoneally 30 min before mice behavioral tests (0.01 ml/g body weight). Each animal was used only once, except for the wheel running test, which was carried out immediately after elevated plus maze.
The tail suspension test was performed in accordance with a method reported previously. The mouse was hung on a hook using adhesive tape placed 2 cm from the extremity of its tail 50 cm above the table. The amount of time spent immobile was recorded for 5 min.

TREK-1 channel = target: T1, TREK-1 channel (Homo sapiens, UniProt O95069); assay: whole-cell patch-clamp of TREK-1 currents in TR-1 cells (293T stably expressing TREK-1); format: cell-based; details: TR-1 (293T) cells, 25°C, applied 5 min after whole-cell access, n = 5; read-out: EC50 of activation of whole-cell TREK-1 currents
T1 construct: expressed in transfected cells
T1 sequence (O95069 1-426): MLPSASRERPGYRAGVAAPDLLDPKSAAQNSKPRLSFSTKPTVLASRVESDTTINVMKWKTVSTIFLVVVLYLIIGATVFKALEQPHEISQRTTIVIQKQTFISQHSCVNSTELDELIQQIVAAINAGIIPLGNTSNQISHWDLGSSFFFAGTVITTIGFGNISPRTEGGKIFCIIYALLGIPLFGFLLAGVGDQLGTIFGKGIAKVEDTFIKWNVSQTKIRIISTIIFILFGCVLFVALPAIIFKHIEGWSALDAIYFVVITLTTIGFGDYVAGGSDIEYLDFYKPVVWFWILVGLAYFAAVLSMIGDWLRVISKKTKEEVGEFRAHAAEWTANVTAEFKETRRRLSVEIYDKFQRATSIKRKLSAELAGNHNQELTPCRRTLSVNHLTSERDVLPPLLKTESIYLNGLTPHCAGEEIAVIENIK
Source text: For recordings of K^+ channel currents, we prepared stable cell lines for TREK-1, TWIK-related acid-sensitive K^+ channel (TASK-1), strongly inwardly rectifying K^+ channel (Kir2.1), and human ether-a-go-go-related gene (HERG-1) channels and transiently expressed other channels in 293T cells using a calcium-phosphate transfection method. For the establishment of the stable lines, we used lentiviral vectors, and the preparation methods for the lentiviral vectors were described in our previous report. TR-1 cells, which stably expressed TREK-1 channel and were grown on a small cover glass (3 × 18 mm), were placed in a recording chamber with an internal volume of 200 μl. Whole-cell currents were recorded in Tyrode solution using an Axopatch 200B amplifier (Axon Instruments, Foster City, CA) at 25°C. […] Perfusion (100 μl/min) was continued to maintain the water level throughout recordings. pH and osmotic pressure of solutions were measured with a pH meter (Horiba, Kyoto, Japan) and a freezing point osmometer (Knauer, Berlin, Germany), respectively.
We previously prepared a lentiviral vector that expressed the TREK-1 channel and using this vector we established a cell line, TR-1, which stably expressed the channel. […] Immediately after whole-cell access, small outward currents were recorded in response to depolarizing step pulses (Fig 1A, 0 min). […]

effect on KCNQ-1 channels (KCNQ-1): no effect | EC50 (TREK-1 channel): 5.3 µM
Compound: CC(C)=CCC/C(C)=C/Cc1cc2ccc(=O)oc2cc1O [ostruthin]
time spent immobile ([1]; amlodipine experiment: single compound vs PBS, ostruthin 5 mg/kg or amlodipine 10 mg/kg, n = 9 and 13): significantly decreased | time spent immobile ([1]; i.p. 30 min before test, 5 min, n = 14, vs PBS): decreased | time spent immobile ([1]; ostruthin 5 mg/kg in the presence of amlodipine 10 mg/kg (co-administration)): no effect | time spent immobile ([1]; ostruthin given 30 min after pre-administration of amlodipine, vs secondary PBS, n = 8): ineffective
